From US11447498B2, “Fused tetracyclic compounds and uses thereof in medicine” (SUNSHINE LAKE PHARMA CO., LTD., priority 2018, dated 2022)

Columns and labels:
HBV DNA replication = assay: Inhibition experiment on HBV virus replication (HepG 2,2,15 cells, supernatant HBV DNA by qPCR); assay type: cell-based; conditions: Hepatitis B virus, HepG2.2.15, 10 days treatment, supernatant HBV DNA on day 11
Excerpt: (§1) The chromosomal integration of HepG2,2,15 cells (SELLS, PNAS, 1987 and SELLS, JV, 1988) has a complete HBV genome and stably expresses viral RNA and viral proteins. HepG2,2,15 cells are capable of secreting mature hepatitis B virus particles and HBsAg into the culture medium. Virus particles DNA and HBsAg secreted by HepG 2,2,15 cells can be quantified by qPCR and ELISA, and the effects of compounds on viral replication and HBsAg secretion can be detected.
(§2) HepG 2,2,15 cells were inoculated with 8,000 per cell to 96-well cell culture plates in duplicate, and were cultured for 3 days until the cells grew to full-hole. Cells were treated with 4-fold serial dilutions of compounds for 10 days, and were given once every other day. The final concentration of DMSO in all pores was 0.5% and DMSO was used as a drug-free control. The supernatant was collected for quantitative detection of HBV DNA on day 11.
Viral genomic DNA was detected by qPCR method, and HBV primers were as follows: […]
The SYBR Premix Ex Taq D-Takara DRR081S kit was used, and 1 μL of cell culture supernatant was used as a template. A standard curve was made using a plasmid containing the HBV genome, and the viral copy number was calculated using the standard curve. Concentration-virus copy number was processed using Graphpad Prism 5 software, and IC50 of compounds inhibiting virus replication was calculated by four-parameter nonlinear regression model.

HBsAg secretion = assay: Inhibition experiment on HBsAg secretion (HepG 2,2,15 cells, ELISA); assay type: cell-based; conditions: Hepatitis B virus, HepG2.2.15, read-out: HBsAg IC50
Excerpt: as §1
as §2, with “HBsAg” for “HBV DNA”
The level of HBsAg secreted by the cells after treatment of the compound was detected by ELISA method, and the method used a hepatitis B surface antigen diagnostic kit (Shanghai Kehua Biotech Co., Ltd. S10910113). 25 μL of the supernatant to be assayed (PBS was diluted to 75 μL) was added to per well in the ELISA plate, and the kit positive control and negative control were set. The ELIS A plate was blocked with a cover paper and incubated at 37° C. for 60 minutes. The ELISA plate was taken out, and the cover paper was teared off, and 50 μL of enzyme conjugate was added to each well. The ELISA plate was oscillated on the shaker for 10 seconds, blocked with a cover paper and incubated at 37° C. for 30 minutes. The ELISA plate was taken out, the cover paper was teared off, and the ELISA plate was washed 5 times: each time the liquid in the hole was discarded, and the washing liquid was filled into the holes, left to stand for 60 seconds, dried, and the liquid residue was patted to dry on the absorbent paper. A freshly prepared mixture of Developer A and Developer B was added to all wells immediately after washing: 100 μL per well. The ELISA plate was oscillated on the shaker for 10 seconds, blocked with a cover paper and incubated at 37° C. for 30 minutes. 50 μL of stop solution was added to all wells. Absorbance was read on the Envision plate reader at a wavelength of 450 nm.
Concentration-HBsAg OD450 was processed using Graphpad Prism 5 software, and IC50 of compounds inhibiting against HBsAg secretion was calculated by four-parameter nonlinear regression model.

[1] = PK test experiments in beagle dogs; assay type: in vivo
Description: The PK test in vivo of the compound of the present invention in beagle dogs (body weight 10-12 kg, male, age 10-12 months, 3 per group with oral administration, 3 per group with intravenous injection) The beagle dog was […] After administration, venous blood was collected at time points (0.083, 0.25, 0.5, 1, 2, 4, 6, 8 and 24 hours) and collected in an anticoagulation tube to which EDTA-K2 was added. Plasma samples were extracted by liquid-liquid extraction and quantitatively analyzed by multiple reaction ion monitoring (MRM) on a triple quadrupole tandem mass spectrometer. Pharmacokinetic parameters were calculated using a noncompartmental method by WinNonLin 6.3 software.

[2] = PK test experiments in SD rats; assay type: in vivo; parameters: VSS: unit not given here
Description: The PK test in vivo of the compound of the present invention in SD rats (body weight 200-250 g, male, age 2-3 months, 3 per group with oral administration, 3 per group with intravenous injection) The SD rat was administered orally with 2.5 mg/kg or 5 mg/kg of the compound tested or intravenously injected with 0.5 mg/kg or 1 mg/kg of the compound tested. After administration, venous blood was collected at time points (0.083, 0.25, 0.5, 1, 2, 5, 7 and 24 hours) and collected in an anticoagulation tube to which EDTA-K2 was added. Plasma samples were extracted by liquid-liquid extraction and quantitatively analyzed by multiple reaction ion monitoring (MRM) on a triple quadrupole tandem mass spectrometer. Pharmacokinetic parameters were calculated using a noncompartmental method by WinNonLin 6.3 software.

[3] = male, dog, plasma, IV, 0.5 mg/kg
[4] = male, dog, plasma, PO, 2.5 mg/kg

**Q.** What does the source list for `CC(C)N1Cc2cc(OCCC3CC3)c3c(c2-c2cc(=O)c(C(=O)O)cn21)CCO3` [Example 15, 4-(2-Cyclopropylethoxy)-7-isopropyl-11-oxo-2,6,7,11-tetrahydro-1H-furo [2,3-h]pyrido[2,1-a]phthalazine-10-carboxylic Acid]?
**A.** IC50 (HBV DNA replication): 1.81 nM; IC50 (HBsAg secretion): 3.13 nM; VSS ([1]; IV, 0.5 mg/kg): 0.23 kg⁻¹; F ([1]; PO, 2.5 mg/kg): 102.2%; AUC(0-inf) [1, 3]: 12.2 µg·h/mL; AUC(0-t) [1, 3]: 11.9 µg·h/mL; Cmax [1, 3]: 2.01 µg/mL; clearance [1, 3]: 0.0414 L/h/kg; AUC(0-inf) [1, 4]: 62.4 µg·h/mL; AUC(0-t) [1, 4]: 60.5 µg·h/mL; Cmax [1, 4]: 7.09 µg/mL; VSS ([2]; IV, 1 mg/kg): 0.9; F ([2]; PO, 5 mg/kg): 157.9%; AUC(0-inf) ([2]; male, rat, plasma, IV, 1 mg/kg): 2.28 µg·h/mL; AUC(0-t) ([2]; male, rat, plasma, IV, 1 mg/kg): 2.14 µg·h/mL; Cmax ([2]; male, rat, plasma, IV, 1 mg/kg): 1.5 µg/mL; clearance ([2]; male, rat, plasma, IV, 1 mg/kg): 0.439 L/h/kg; AUC(0-inf) ([2]; male, rat, plasma, PO, 5 mg/kg): 17.8 µg·h/mL; AUC(0-t) ([2]; male, rat, plasma, PO, 5 mg/kg): 17.7 µg·h/mL; Cmax ([2]; male, rat, plasma, PO, 5 mg/kg): 2.17 µg/mL
